This passage reports IC50 results from patent US5436254A, “Carbostyril derivatives” (Otsuka Pharmaceutical Company, Ltd., priority 1989, dated 1995).

Each structure is given as a SMILES string. Like-named read-outs stand apart in the source and are kept apart here.

For this experiment, the target named is V1 receptor (Rattus norvegicus, UniProt P30560). Nature of the experiment: biochemical. In kind it is binding.
V1 receptor, sequence (P30560 whole entry): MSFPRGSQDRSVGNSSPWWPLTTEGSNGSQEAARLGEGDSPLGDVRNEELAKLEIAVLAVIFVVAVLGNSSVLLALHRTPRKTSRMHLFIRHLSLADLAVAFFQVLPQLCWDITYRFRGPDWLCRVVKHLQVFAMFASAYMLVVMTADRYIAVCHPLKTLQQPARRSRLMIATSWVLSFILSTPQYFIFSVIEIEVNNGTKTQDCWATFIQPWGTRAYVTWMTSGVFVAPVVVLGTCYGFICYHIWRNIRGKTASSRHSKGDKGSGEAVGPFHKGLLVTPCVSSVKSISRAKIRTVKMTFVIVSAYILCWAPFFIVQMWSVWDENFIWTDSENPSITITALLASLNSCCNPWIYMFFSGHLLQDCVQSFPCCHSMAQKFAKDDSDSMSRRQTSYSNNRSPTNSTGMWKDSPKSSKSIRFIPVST

Usually IC50 stands for the point on the concentration scale where inhibition reaches its midpoint. Take `COC(=O)[C@H](CCCCN)NC(=O)CCCCCOc1ccc(C(=O)N2CCC(N3C(=O)CCc4ccccc43)CC2)cc1` [Example 166, 1-{1-[4-{5-[5-Amino-1-(S)-methoxycarbonyl]pentylaminocarbonylpentyloxy}benzoyl]-4-piperidinyl}-3,4-dihydrocarbostyril]: the IC50 was 0.044 µM.
`CC(C)CCNCCCOc1ccc(C(=O)N2CCC(N3C(=O)CCc4ccccc43)CC2)cc1` [Example 167, 1-{1-[4-(3-Isopentylaminopropoxy)benzoyl]-4-piperidinyl}-3,4-dihydrocarbostyril] yielded an IC50 of 0.28 µM.
The same measure, in the same setting: the result for `CCOC(=O)NCCCOc1ccc(C(=O)N2CCC(N3C(=O)CCc4ccccc43)CC2)cc1` [Example 168, 1-{1-[4-(3-Ethoxycarbonylaminopropoxy)benzoyl]-4-piperidinyl}-3,4-dihydrocarbostyril] reads 0.19 µM.
On the same count and under the same terms, for `O=C(c1ccc(OCCCNS(=O)(=O)c2ccccc2)cc1)N1CCC(N2C(=O)CCc3ccccc32)CC1` [Example 169, 1-{1-[4-(3-Phenylsulfonylaminopropoxy)benzoyl]-4-piperidinyl}-3,4-dihydrocarbostyril] the value was 0.17 µM.
On the same count and under the same terms, the result for `O=C(c1ccc(OCCCCC(O)CNCc2ccccc2)cc1)N1CCC(N2C(=O)CCc3ccccc32)CC1` (centres unmarked) [Example 170, 1-{1-[4-(5-Hydroxy-6-benzylaminohexyloxy)benzoyl]-4-piperidinyl}-3,4-dihydrocarbostyril] reads 0.039 µM; that for `NCC(O)CCCCOc1ccc(C(=O)N2CCC(N3C(=O)CCc4ccccc43)CC2)cc1` (centres unmarked) [Example 171, 1-{1-[4-(5-Hydroxy-6-aminohexyloxy)benzoyl]-4-piperidinyl}-3,4-dihydrocarbostyril], 0.24 µM.
The compound `O=C(c1ccc(OCCCCC(O)CN2CCN(Cc3ccccc3)CC2)cc1)N1CCC(N2C(=O)CCc3ccccc32)CC1` (centres unmarked) [Example 172, 1-(1-[4-(5-Hydroxy-6-(4-benzyl-1-piperazinyl)hexyloxy]benzoyl]-4-piperidinyl)-3,4-dihydrocarbostyril.dioxalate] yielded an IC50 of 0.043 µM.
Still for that read-out and setting: for `O=C(c1ccc(OCCCCC(O)CN2CCNCC2)cc1)N1CCC(N2C(=O)CCc3ccccc32)CC1` (centres unmarked) [Example 173, 1-{1-[4-(5-Hydroxy-6-(1-piperazinyl)hexyloxy]benzoyl]-4-piperidinyl}-3,4-dihydrocarbostyril.dioxalate] the value was 0.039 µM; for `Cc1ccc(S(=O)(=O)NCCCOc2ccc(C(=O)N3CCC(N4C(=O)CCc5ccccc54)CC3)cc2)cc1` [Example 174, 1-{1-[4-(3-p-Toluenesulfonylaminopropoxy)benzoyl]-4-piperidinyl}-3,4-dihydrocarbostyril], 0.49 µM.
Turning to `CCOc1ccc(C(=O)N2CCC(n3c(=O)ccc4c(F)cc(F)cc43)CC2)c(OC)c1` [Example 175, 5,7-Difluoro-1-[1-(2-Methoxy-4-ethoxybenzoyl)-4-piperidinyl]carbostyril], under “read-out: IC50”, the IC50 amounted to 0.32 µM.
The compound `CC(=O)NCC(CCCCOc1ccc(C(=O)N2CCC(N3C(=O)CCc4ccccc43)CC2)cc1)OC(C)=O` (centres unmarked) [Example 176, 1-{1-[4-(5-Acetoxy-6-acetylaminohexyloxy)benzoyl]-4-piperidinyl}-3,4-dihydrocarbostyril] yielded an IC50 of 0.13 µM.
Compound `CC(=O)NCC(O)CCCCOc1ccc(C(=O)N2CCC(N3C(=O)CCc4ccccc43)CC2)cc1` (centres unmarked) [Example 177, 1-{1-[4-(5-Hydroxy-6-acetylaminohexyloxy)-benzoyl]-4-piperidinyl}-3,4-dihydrocarbostyril] came in with an IC50 of 0.13 µM.
Same read-out and setting: the result for `CN1CCN(CC(O)CCCCOc2ccc(C(=O)N3CCC(N4C(=O)CCc5ccccc54)CC3)cc2)CC1` (centres unmarked) [Example 178, 1-{1-[4-(5-Hydroxy-6-(4-methyl-1-piperazinyl)hexyloxy]benzoyl]-4-piperidinyl}-3,4-dihydrocarbostyril] reads 0.045 µM; that for `CN(C)CCCCc1ccc(C(=O)N2CCC(N3C(=O)CCc4ccccc43)CC2)cc1` [Example 180, 1-{1-[4-(4-Dimethylaminobutyl)benzoyl]-4-piperidinyl}-3,4-dihydrocarbostyril], 0.4 µM; that for `CC(=O)NCC(=O)NCCCOc1ccc(C(=O)N2CCC(N3C(=O)CCc4ccccc43)CC2)cc1` [Example 181, 1-{1-[4-(3-Acetylaminoacetylaminopropoxy)benzoyl]-4-piperidinyl}-3,4-dihydrocarbostyril], 0.23 µM.
Same read-out and setting: for `CCCC(NC(C)=O)C(=O)NCCCOc1ccc(C(=O)N2CCC(N3C(=O)CCc4ccccc43)CC2)cc1` (centres unmarked) [Example 182, 1-{1-[4-(3-[2-(Acetylamino)valerylamino]propoxy)benzoyl]-4-piperidinyl}-3,4-dihydrocarbostyril] the value was 0.12 µM; for `CCN(CC)CC(O)CCCCCCOc1ccc(C(=O)N2CCC(N3C(=O)CCc4ccccc43)CC2)cc1` (centres unmarked) [Example 184, 1-{1-[4-(7-Hydroxy-8-diethylaminooctyloxy)benzoyl]-4-piperidinyl}-3,4-dihydrocarbostyril], 0.039 µM.
Still for that read-out and setting: the result for `CCN(CC)CC(O)CCCCOc1ccc(C(=O)N2CCC(N3C(=O)CCc4ccc(F)cc43)CC2)c(OC)c1` (centres unmarked) [Example 185, 7-Fluoro-1-{1-[4-(5-Hydroxy-6-diethylaminohexyloxy)-2-methoxybenzoyl]-4-piperidinyl}-3,4-dihydrocarbostyril] reads 0.01 µM.
The compound `O=C(c1ccc(OCCCC(O)CN2CCCC2)cc1)N1CCC(N2C(=O)CCc3ccccc32)CC1` (centres unmarked) [Example 186, 1-{1-[4-(4-Hydroxy-5-(1-pyrrolidinyl)pentyloxy)benzoyl]-4-piperidinyl}-3,4-dihydrocarbostyril] registered an IC50 of 0.063 µM.
Compound `CN(C)CC(O)CCCCCCOc1ccc(C(=O)N2CCC(N3C(=O)CCc4ccccc43)CC2)cc1` (centres unmarked) [Example 187, 1-{1-[4-(7-Hydroxy-8-dimethylaminooctyloxy)benzoyl]-4-piperidinyl}-3,4-dihydrocarbostyril] showed an IC50 of 0.04 µM.
Still for that read-out and setting: for `O=C(c1ccc(OCCCC(O)CN2CCCCC2)cc1)N1CCC(N2C(=O)CCc3ccccc32)CC1` (centres unmarked) [Example 188] the value was 0.068 µM.
Still for that read-out and setting: the result for `O=C(c1ccc(OCCCC(O)CN2CCOCC2)cc1)N1CCC(N2C(=O)CCc3ccccc32)CC1` (centres unmarked) [Example 189, 1-{1-[4-(4-Hydroxy-5-morpholinopentyloxy)benzoyl]-4-piperidinyl}-3,4-dihydrocarbostyril] reads 0.13 µM; that for `CCN(CC)CC(O)COCCCCCOc1ccc(C(=O)N2CCC(N3C(=O)CCc4ccccc43)CC2)cc1` (centres unmarked) [Example 190, 1-{1-[4-(5-(2-Hydroxy-3-diethylaminopropoxy)pentyloxy)benzoyl]-4-piperidinyl}-3,4-dihydrocarbostyril], 0.033 µM; that for `CN(C)CC(O)COCCCCCOc1ccc(C(=O)N2CCC(N3C(=O)CCc4ccccc43)CC2)cc1` (centres unmarked) [Example 191, 1-{1-[4-(5-(2-Hydroxy-3-dimethylaminopropoxy)pentyloxy)benzoyl]-4-piperidinyl}-3,4-dihydrocarbostyril], 0.034 µM.
Still for that read-out and setting: the result for `CCN(CC)CC(O)COCCCOc1ccc(C(=O)N2CCC(N3C(=O)CCc4ccccc43)CC2)cc1` (centres unmarked) [Example 192, 1-{1-[4-(3-(2-Hydroxy-3-diethylaminopropoxy)propoxy)benzoyl]-4-piperidinyl}-3,4-dihydrocarbostyril] reads 0.061 µM.
Take `Nc1ccc(C(=O)NCCCOc2ccc(C(=O)N3CCC(N4C(=O)CCc5ccccc54)CC3)cc2)cc1` [Example 193, 1-{1-[4-(3-(4-Aminobenzoylamino)propoxy)benzoyl]-4-piperidinyl}-3,4-dihydrocarbostyril]: inhibition was half-maximal at 0.12 µM (IC50).
The same measure, in the same setting: the result for `O=C(c1ccc(OCCCC[S+]([O-])c2nc3ccccc3[nH]2)cc1)N1CCC(N2C(=O)CCc3ccccc32)CC1` (centres unmarked) [Example 194, 1-{1-[4-(4-(Benzimidazol-2-yl)sulfinylbutoxy)benzoyl]-4-piperidinyl}-3,4-dihydrocarbostyril] reads 0.35 µM; that for `CC(=O)N[C@@H](CCC(N)=O)C(=O)NCCCOc1ccc(C(=O)N2CCC(N3C(=O)CCc4ccccc43)CC2)cc1` [Example 195, 1-(1-[4-(3-(α-N-Acetyl-(L)-glutaminyl)aminopropoxy)benzoyl]-4-piperidinyl}-3,4-dihydrocarbostyril], 0.19 µM.
Still for that read-out and setting: the result for `CC(=O)Nc1ccc(C(=O)NCCCOc2ccc(C(=O)N3CCC(N4C(=O)CCc5ccccc54)CC3)cc2)cc1` [Example 196, 1-(1-[4-(3-(4-Acetylaminobenzoyl)aminopropoxy)benzoyl]-4-piperidinyl}-3,4-dihydrocarbostyril] reads 0.17 µM; that for `CN(C)CCCNC(=O)CCCCCOc1ccc(C(=O)N2CCC(N3C(=O)CCc4ccccc43)CC2)cc1` [Example 197, 1-(1-[4-(5-(3-Dimethylaminopropyl)aminocarbonylpentyloxy)benzoyl]-4-piperidinyl}-3,4-dihydrocarbostyril], 0.035 µM.
In turn, `CCNC(=O)NCCCOc1ccc(C(=O)N2CCC(N3C(=O)CCc4ccccc43)CC2)cc1` [Example 198, 1-{1-[4-(3-Ethylaminocarbonylaminopropoxy)benzoyl]-4-piperidinyl}-3,4-dihydrocarbostyril] displayed an IC50 of 0.32 µM.
Same read-out and setting: for `CN(C)CCNC(=O)CCCCCOc1ccc(C(=O)N2CCC(N3C(=O)CCc4ccccc43)CC2)cc1` [Example 199, 1-[1-[4-(5-(2-Dimethylaminoethyl)aminocarbonylpentyloxy)benzoyl]-4-piperidinyl}-3,4-dihydrocarbostyril] the value was 0.055 µM; for `O=C(CCCCCOc1ccc(C(=O)N2CCC(N3C(=O)CCc4ccccc43)CC2)cc1)NC1CCN(Cc2ccccc2)CC1` [Example 200, 1-{1-[4-(5-(1-Benzyl-4-piperidinyl)aminocarbonylpentyloxy)benzoyl]-4-piperidinyl}-3,4-dihydrocarbostyril], 0.034 µM.
`CCN(CC)CC(O)CCCCOc1ccc(C(=O)N2CCC(N3C(=O)CCc4c(F)cc(F)cc43)CC2)c(OC)c1` (centres unmarked) [Example 201, 5,7-Difluoro-1-(1-[2-methoxy-4-(5-hydroxy-6-diethylaminohexyloxy)benzoyl]-4-piperidinyl}-3,4-dihydrocarbostyril] returned an IC50 of 0.008 µM.
Same read-out and setting: for `O=C(c1ccc(OCCCCC(O)CN2CCCC2)cc1)N1CCC(N2C(=O)CCc3ccccc32)CC1` (centres unmarked) [Example 202, 1-{1-[4-(5-Hydroxy-6-(1-pyrrolidinyl)hexyloxy)benzoyl]-4-piperidinyl}-3,4-dihydrocarbostyril] the value was 0.027 µM.
